How the values were obtained:
Ba/F3 KIF5B-RET cells = biological target: T1, Ba/F3 KIF5B-RET cells (Homo sapiens, UniProt P07949); assay: Inhibition of proliferation of Ba/F3 KIF5B-RET cells (CellTiter-Glo); assay type: cell-based; settings: 72 to 144 hours
T1 construct: fused on or other part: P33176 (Kinesin-1 heavy chain)
Description: When Ba/F3 KIF5B-RET cells were cultured to the appropriate cell density, cells were collected, and the cells were adjusted to the appropriate cell concentration using complete medium, and the cell suspension was spread in a 96-well plate, 90 μL per well, and placed in the wall of a 37° C., 5% CO2 incubator overnight; compound solutions of different concentrations were prepared using DMSO and culture medium; a solvent control was set, and the compound solution was added to a 96-well plate with […] at 37° C. in a 5% CO2 incubator for 72 to 144 hours, CellTiter-Glo solution was added thereto and mixed well by shaking, incubated for 10 minutes in the dark, and read by BioTek Synergy H1 microplate reader.
The IC50 values were obtained by using the luminescence signal values to calculate the inhibition rate, the concentrations and the inhibition rates were fitted to a nonlinear regression curve using Graphpad Prism software.

KDR kinase = biological target: T2, KDR kinase (Homo sapiens, UniProt P35968); assay: HTRF kinase activity inhibition, KDR; assay type: biochemical; settings: for IC50: HTRF, ATP at Km; for Ratio (KDR/RET): KDR IC50 / RET IC50
T2 construct: purchased Carna 08-191
T2 sequence (P35968 20-1356): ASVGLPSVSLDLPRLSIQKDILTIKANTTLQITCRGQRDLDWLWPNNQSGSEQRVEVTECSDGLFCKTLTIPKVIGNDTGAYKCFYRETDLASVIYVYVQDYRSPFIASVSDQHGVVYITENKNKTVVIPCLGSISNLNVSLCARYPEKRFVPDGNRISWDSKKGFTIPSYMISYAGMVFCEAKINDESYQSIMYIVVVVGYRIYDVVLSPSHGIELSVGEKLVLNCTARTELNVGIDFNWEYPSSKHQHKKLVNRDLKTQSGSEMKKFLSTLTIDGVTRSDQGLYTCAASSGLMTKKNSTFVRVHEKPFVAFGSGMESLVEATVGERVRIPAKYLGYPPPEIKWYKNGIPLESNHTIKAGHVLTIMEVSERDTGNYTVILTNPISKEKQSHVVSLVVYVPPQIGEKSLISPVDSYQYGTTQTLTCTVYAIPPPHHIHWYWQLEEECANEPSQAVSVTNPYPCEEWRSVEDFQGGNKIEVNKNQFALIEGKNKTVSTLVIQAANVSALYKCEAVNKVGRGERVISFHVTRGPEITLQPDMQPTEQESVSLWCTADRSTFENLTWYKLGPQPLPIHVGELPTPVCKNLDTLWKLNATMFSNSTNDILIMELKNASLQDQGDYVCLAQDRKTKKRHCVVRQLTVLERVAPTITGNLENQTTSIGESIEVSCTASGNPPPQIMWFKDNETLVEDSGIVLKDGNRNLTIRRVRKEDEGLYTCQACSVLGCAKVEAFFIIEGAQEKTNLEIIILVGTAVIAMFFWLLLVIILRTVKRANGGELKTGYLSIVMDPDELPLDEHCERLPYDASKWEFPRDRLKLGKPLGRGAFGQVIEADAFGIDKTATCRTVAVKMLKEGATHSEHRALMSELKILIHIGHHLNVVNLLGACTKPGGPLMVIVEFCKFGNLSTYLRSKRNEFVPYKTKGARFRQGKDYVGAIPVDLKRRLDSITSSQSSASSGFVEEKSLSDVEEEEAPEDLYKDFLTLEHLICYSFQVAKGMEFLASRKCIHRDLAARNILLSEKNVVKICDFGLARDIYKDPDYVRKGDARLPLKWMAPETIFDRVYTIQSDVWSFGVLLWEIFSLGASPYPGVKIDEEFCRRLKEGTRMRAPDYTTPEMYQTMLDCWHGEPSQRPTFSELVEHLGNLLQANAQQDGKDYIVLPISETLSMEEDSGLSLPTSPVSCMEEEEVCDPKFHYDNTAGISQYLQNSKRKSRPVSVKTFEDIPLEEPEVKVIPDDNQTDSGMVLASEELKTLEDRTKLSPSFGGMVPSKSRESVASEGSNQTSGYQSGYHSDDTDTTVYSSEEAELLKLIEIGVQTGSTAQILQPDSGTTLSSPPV
Source text: 2.2 Experimental Reagents: • KDR kinase was purchased from Carna Company, and the article number was 08-191; • HTRF KinEASE-TK kit was purchased from Cisbio Company, and the article number was 62TK0PEC; • ATP was purchased from Thermofisher Company, and the article number was PV3227; • 384-well plate was purchased from PerkinElmer Company, and the article number was 6007290.
In this experiment, the homogeneous time-resolved fluorescence (HTRF) method was used for the detection of compounds on KDR kinase activity.

RET kinase = biological target: T3, RET kinase (Homo sapiens, UniProt P07949); assay: HTRF kinase activity inhibition, RET wild-type; assay type: biochemical; settings: ATP at Km
T3 construct: purchased Carna 08-159
T3 sequence (P07949 29-1114): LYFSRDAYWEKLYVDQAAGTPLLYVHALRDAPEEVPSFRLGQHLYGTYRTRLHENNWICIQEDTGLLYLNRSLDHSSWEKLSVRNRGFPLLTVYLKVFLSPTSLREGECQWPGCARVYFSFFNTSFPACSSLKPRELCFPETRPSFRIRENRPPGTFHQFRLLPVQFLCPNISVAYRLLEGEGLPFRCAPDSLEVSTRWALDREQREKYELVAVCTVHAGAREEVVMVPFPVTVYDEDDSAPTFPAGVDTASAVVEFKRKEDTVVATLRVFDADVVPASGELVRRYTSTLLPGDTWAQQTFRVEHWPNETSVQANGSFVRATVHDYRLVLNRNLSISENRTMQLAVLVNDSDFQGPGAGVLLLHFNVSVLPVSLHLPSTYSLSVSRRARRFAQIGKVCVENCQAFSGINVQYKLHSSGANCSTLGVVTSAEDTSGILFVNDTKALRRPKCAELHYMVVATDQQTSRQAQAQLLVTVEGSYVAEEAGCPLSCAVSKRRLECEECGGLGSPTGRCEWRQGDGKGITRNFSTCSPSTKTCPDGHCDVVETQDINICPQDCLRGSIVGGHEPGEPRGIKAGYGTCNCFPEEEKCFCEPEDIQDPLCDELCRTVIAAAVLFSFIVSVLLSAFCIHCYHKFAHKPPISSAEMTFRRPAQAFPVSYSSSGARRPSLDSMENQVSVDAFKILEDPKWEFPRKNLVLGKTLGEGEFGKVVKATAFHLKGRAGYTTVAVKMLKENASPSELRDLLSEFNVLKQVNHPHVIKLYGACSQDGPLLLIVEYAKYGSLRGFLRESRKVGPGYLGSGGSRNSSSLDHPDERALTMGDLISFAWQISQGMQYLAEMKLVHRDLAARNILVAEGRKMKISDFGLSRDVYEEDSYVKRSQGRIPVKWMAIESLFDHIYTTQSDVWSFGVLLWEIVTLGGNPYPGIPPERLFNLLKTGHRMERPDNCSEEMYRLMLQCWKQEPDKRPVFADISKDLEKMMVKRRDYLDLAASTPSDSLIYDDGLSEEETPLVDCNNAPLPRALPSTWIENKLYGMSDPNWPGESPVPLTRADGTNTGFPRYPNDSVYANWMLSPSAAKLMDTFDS
Source text: 2.2 Experimental Reagents: • RET enzyme was purchased from Carna Company, and the article number was 08-159; • RET M918T enzyme was purchased from Carna Company, and the article number was 08-508; • KIF5B-RET was purchased from SignalChem Company, the article number was R02-19FG-05; • CCDC6-RET was purchased from SignalChem Company, the article number was R02-19BG-05; • RET V804M enzyme was purchased from Thermofisher Company, and the article number was PV6223; • RET V804L enzyme was purchased from Thermofisher Company, and the article number was PV4397; • HTRF KinEASE-TK kit was purchased from Cisbio Company, and the article number was 62TK0PEC; • ATP was purchased from Thermofisher Company, and the article number was PV3227; • 384-well plate was purchased from PerkinElmer Company, and the article number was 6007290.
In this experiment, a homogeneous time-resolved fluorescence (HTRF) method was used for the detection of compounds on RET kinase activity.

[1] = tested on: TT cells (MTC, RET C634W); assay: Inhibition of proliferation of TT cells (CellTiter-Glo, 72 h); assay type: cell-based; settings: Homo sapiens
How it was run: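 TT cells seeded overnight, then exposed to compound dilutions for 72 h at 37 °C, 5% CO2, with a solvent control. Viability read by CellTiter-Glo luminescence; IC50 from nonlinear regression of inhibition rate versus concentration.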

[2] = Balb/C mouse pharmacokinetics, oral 5 mg/kg; assay type: in vivo, Balb/C mice; settings: male, p.o. 5 mg/kg, plasma
Description: The pharmacokinetic behavior of the following compound embodiments, administered orally at a dose of 5 mg/kg in plasma in mice, was studied using Balb/C mice as test animals.
Balb/C Mouse 6/embodiment, male, Shanghai Jiesijie Laboratory Animal Co., Ltd, Animal Production License No. (SCXK (Shanghai) 2013-0006 N0.311620400001794).
Balb/C mice, males; p.o. after overnight fasting, respectively, at a dose of 5 mg/kg, administered in a volume of 10 mL/kg.
0.5% CMC-Na (1% Tween80) was dissolved by ultrasound, and prepared into clear solution or uniform suspension.
Before and after administration, 0.1 mL of blood was collected from mice at 0, 0.5, 1, 2, 4, 6, 8 and 24 hours by orbital collection, placed in EDTA-K2 tubes, centrifuged at 6000 rpm at 4° C. for 6 minutes to separate plasma, and stored at −80° C.
2.5 Sample Handling: • 1) 40 μL of plasma sample was precipitated by adding 160 μL of acetonitrile, mixed and centrifuged at 3500×g for 5-20 minutes. • 2) 100 μL of the supernatant solution after treatment was taken to analyze the concentration of the test compound by LC/MS/MS.
2.6 Liquid Phase Analysis • Liquid phase conditions: Shimadzu LC-20AD pump • Mass spectrometry conditions: AB Sciex API 4000 mass spectrometer • Chromatographic column: phenomenex Gemiu 5 μM C18 50×4.6 mm • Mobile phase: Liquid A was 0.1% formic acid aqueous solution, liquid B was acetonitrile • Flow rate: 0.8 mL/min • Elution time: 0-4.0 minutes, the eluent was as follows:
The main pharmacokinetic parameters were calculated by WinNonlin 6.1 and the results of the mouse pharmacokinetic experiments were shown in Table 13 below.

T1 sequence (P07949 whole entry, change not shown, the tested form may be a part): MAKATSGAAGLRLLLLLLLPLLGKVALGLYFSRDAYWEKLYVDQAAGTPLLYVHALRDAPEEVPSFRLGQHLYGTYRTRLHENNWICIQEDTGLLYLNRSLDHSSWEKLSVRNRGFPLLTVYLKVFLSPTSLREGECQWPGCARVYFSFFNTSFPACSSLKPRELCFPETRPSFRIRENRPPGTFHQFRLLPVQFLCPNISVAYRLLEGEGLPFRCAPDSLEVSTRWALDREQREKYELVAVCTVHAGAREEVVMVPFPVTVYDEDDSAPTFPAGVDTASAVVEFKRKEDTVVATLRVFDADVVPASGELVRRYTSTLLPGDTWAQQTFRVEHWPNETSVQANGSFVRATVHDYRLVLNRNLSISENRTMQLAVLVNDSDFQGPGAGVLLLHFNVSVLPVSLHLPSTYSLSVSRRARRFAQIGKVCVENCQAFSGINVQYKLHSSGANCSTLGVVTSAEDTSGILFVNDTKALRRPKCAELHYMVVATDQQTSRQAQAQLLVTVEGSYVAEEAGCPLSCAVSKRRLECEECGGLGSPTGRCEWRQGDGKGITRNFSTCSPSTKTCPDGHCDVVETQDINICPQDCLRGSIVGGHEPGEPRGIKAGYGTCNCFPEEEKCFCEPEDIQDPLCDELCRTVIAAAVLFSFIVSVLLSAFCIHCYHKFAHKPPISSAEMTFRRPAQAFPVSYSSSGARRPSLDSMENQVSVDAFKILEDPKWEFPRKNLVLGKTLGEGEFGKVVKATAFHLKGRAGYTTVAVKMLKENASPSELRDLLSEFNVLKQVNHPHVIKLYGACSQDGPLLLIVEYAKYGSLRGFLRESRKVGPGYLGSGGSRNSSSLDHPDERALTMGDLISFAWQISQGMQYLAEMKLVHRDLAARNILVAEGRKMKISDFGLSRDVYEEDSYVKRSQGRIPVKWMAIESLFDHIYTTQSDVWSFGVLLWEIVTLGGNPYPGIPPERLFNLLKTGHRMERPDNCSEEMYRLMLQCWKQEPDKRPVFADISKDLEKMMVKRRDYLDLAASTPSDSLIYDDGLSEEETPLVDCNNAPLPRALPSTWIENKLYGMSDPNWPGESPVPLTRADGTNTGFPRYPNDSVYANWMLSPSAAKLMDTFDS

| SMILES | IC50 (Ba/F3 KIF5B-RET cells) | IC50 (KDR kinase) | Ratio (KDR/RET) (KDR kinase) | IC50 (RET kinase) | IC50 [1] | MRT ([2]; read-out: Average residence time MRT) | Cmax ([2]; read-out: Blood concentration Cmax) | AUC(0-t) ([2]; read-out: Curve area AUC0-t) | AUC(0-inf) ([2]; read-out: Curve area AUC0-∞) | half-life ([2]; read-out: Half-life t1/2 (converted)) | Tmax ([2]; read-out: Peak time tmax) |
| --- | --- | --- | --- | --- | --- | --- | --- | --- | --- | --- | --- |
| CNC(=O)C12CC(COc3cc(-c4ccc(N5CC6CC(C5)N6Cc5ccc(OC)nc5)nc4)c4c(C#N)cnn4c3)(C1)C2 [Embodiment 67, 3-(((3-Cyano-4-(6-(6-((6-methoxypyridin-3-yl)methyl)-3,6-diazabicyclo[3.1.1]heptan-3-yl)pyridin-3-yl)pyrazolo[1,5-a]pyridin-6-yl)oxy)methyl)-N-methylbicyclo[1.1.1]pentane-1-carboxamide] | 5.33 nM | 4 nM | 16 | 0.25 nM | 6.84 nM |  |  |  |  |  |  |
| COc1ccc(CN2C3CC2CN(c2ccc(-c4cc(OCC56CC(C#N)(C5)C6)cn5ncc(C#N)c45)cn2)C3)cn1 [Embodiment 53, 6-((3-Cyanobicyclo[1.1.1]pentan-1-yl)methoxy)-4-(6-(6-((6-methoxypyridin-3-yl)methyl)-3,6-diazabicyclo[3.1.1]heptan-3-yl)pyridin-3-yl)pyrazolo[1,5-a]pyridine-3-carbonitrile] | 30.6 nM | 21.6 nM | 27 | 0.8 nM | 24.7 nM |  |  |  |  |  |  |
| COc1ncc(CN2C3CC2CN(c2ccc(-c4cc(OCC5CC(C)(O)C5)cn5ncc(C#N)c45)cn2)C3)cc1F (stereo not drawn) [Embodiment 72, 4-(6-(6-((5-Fluoro-6-methoxypyridin-3-yl)methyl)-3,6-diazabicyclo[3.1.1]heptan-3-yl)pyridin-3-yl)-6-((cis-3-hydroxy-3-methylcyclobutyl)methoxy)pyrazolo[1,5-a]pyridine-3-carbonitrile] | 8.59 nM | 7.4 nM | 20 | 0.37 nM | 13.9 nM |  |  |  |  |  |  |
| COc1ccc(CN2C3CC2CN(c2ccc(-c4cc(OCC56CC(C(N)=O)(C5)C6)cn5ncc(C#N)c45)cn2)C3)cn1 [Embodiment 66, 3-(((3-Cyano-4-(6-(6-((6-methoxypyridin-3-yl)methyl)-3,6-diazabicyclo[3.1.1]heptan-3-yl)pyridin-3-yl)pyrazolo[1,5-a]pyridin-6-yl)oxy)methyl)bicyclo[1.1.1]pentane-1-carboxamide] | 14.8 nM | 3 nM | 12 | 0.25 nM | 5.18 nM |  |  |  |  |  |  |
| COc1ccc(CN2C3CC2CN(c2ccc(-c4cc(OCC[S+](C)[O-])cn5ncc(C#N)c45)cn2)C3)cn1 (stereo not drawn) [Embodiment 1, 4-(6-(6-((6-Methoxypyridin-3-yl)methyl)-3,6-diazabicyclo[3.1.1]heptan-3-yl)pyridin-3-yl)-6-(2-(methylsulfinyl)ethoxy)pyrazolo[1,5-a]pyridine-3-carbonitrile] | 24.6 nM | 28 nM | 59 | 0.47 nM | 11.5 nM |  |  |  |  |  |  |
| COc1ccc(CN2C3CC2CN(c2ccc(-c4cc(OC[C@H]5C[C@@](C)(O)C5)cn5ncc(C#N)c45)cn2)C3)cn1 [Embodiment 44, 6-((Cis-3-hydroxy-3-methylcyclobutyl)methoxy)-4-(6-(6-((6-methoxypyridin-3-yl)methyl)-3,6-diazabicyclo[3.1.1]heptan-3-yl)pyridin-3-yl)pyrazolo[1,5-a]pyridine-3-carbonitrile] | 15.3 nM |  |  |  | 12.2 nM | 5.22 h | 1620 ng/mL | 14000 ng·h/mL | 14000 ng·h/mL | 3.45 h | 0.5 h |
| CC1(O)CN(c2cc(-c3ccc(N4CCC(C)(NC(=O)c5ncccc5Cl)CC4)nc3)c3c(C#N)cnn3c2)C1 [Embodiment 95, 3-Chloro-N-(1-(5-(3-cyano-6-(3-hydroxy-3-methylazetidin-1-yl)pyrazolo[1,5-a]pyridin-4-yl)pyridin-2-yl)-4-methylpiperidin-4-yl)picolinamide] | 22.5 nM | 24 nM | 24 | 1 nM | 15 nM |  |  |  |  |  |  |
| COc1ccc(CN2C3CC2CN(c2ccc(-c4cc(C#C[C@@H](C)O)cn5ncc(C#N)c45)cn2)C3)cn1 [Embodiment 22, 6-((R)-3-Hydroxybut-1-yn-1-yl)-4-(6-(6-((6-methoxypyridin-3-yl)methyl)-3,6-diazabicyclo[3.1.1]heptan-3-yl)pyridin-3-yl)pyrazolo[1,5-a]pyridine-3-carbonitrile] | 16.9 nM | 24 nM | 75 | 0.32 nM | 20.7 nM |  |  |  |  |  |  |
| COc1ncc(CN2C3CC2CN(c2ccc(-c4cc(N5CC(C)(C#N)C5)cn5ncc(C#N)c45)cn2)C3)cc1F [Embodiment 76, 6-(3-Cyano-3-methylazetidin-1-yl)-4-(6-(6-((5-fluoro-6-methoxypyridin-3-yl)methyl)-3,6-diazabicyclo[3.1.1]heptan-3-yl)pyridin-3-yl)pyrazolo[1,5-a]pyridine-3-carbonitrile] | 6.04 nM |  |  |  | 3.48 nM |  |  |  |  |  |  |
| COc1ncc(CN2C3CC2CN(c2ccc(-c4cc(OCC56CC(CO)(C5)C6)cn5ncc(C#N)c45)cn2)C3)cc1F [Embodiment 71, 4-(6-(6-((5-Fluoro-6-methoxypyridin-3-yl)methyl)-3,6-diazabicyclo[3.1.1]heptan-3-yl)pyridin-3-yl)-6-((3-(hydroxymethyl)bicyclo[1.1.1]pentan-1-yl)methoxy)pyrazolo[1,5-a]pyridine-3-carbonitrile] | 5.59 nM |  |  |  | 8.65 nM |  |  |  |  |  |  |
| COc1ccc(CN2C3CC2CN(c2ccc(-c4cc(C#CC5(O)COC5)cn5ncc(C#N)c45)cn2)C3)cn1 [Embodiment 80, 6-((3-Hydroxyoxetan-3-yl)ethynyl)-4-(6-(6-((6-methoxypyridin-3-yl)methyl)-3,6-diazabicyclo[3.1.1]heptan-3-yl)pyridin-3-yl)pyrazolo[1,5-a]pyridine-3-carbonitrile] | 23.9 nM |  |  |  | 17.3 nM |  |  |  |  |  |  |
| COc1ncc(CN2C3CC2CN(c2ccc(-c4cc(N5CC(C)(O)C5)cn5ncc(C#N)c45)cn2)C3)cc1F [Embodiment 73, 4-(6-(6-((5-Fluoro-6-methoxypyridin-3-yl)methyl)-3,6-diazabicyclo[3.1.1]heptan-3-yl)pyridin-3-yl)-6-(3-hydroxy-3-methylazetidin-1-yl)pyrazolo[1,5-a]pyridine-3-carbonitrile] | 12 nM |  |  |  | 5.95 nM |  |  |  |  |  |  |

Reference: patent publication US20230406865A1, “CRYSTAL FORM OF FREE BASE OF INHIBITOR CONTAINING BICYCLIC RING DERIVATIVE AND PREPARATION METHOD AND APPLICATION OF CRYSTAL FORM” (SHANGHAI HANSOH BIOMEDICAL CO., LTD., priority 2020, published 2023)
